Reference: the supplement of paper PMC11368000

What was measured:
Conditions in all cases: exposure time: 90 min
[1] = tested on: 1392 (donor line of iPSC-derived cardiomyocytes); assay: POD (EC05) for increase in beat frequency (positive chronotrope) vs vehicle; higher = less potent (higher point of departure)
Method: (§1)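 Human iPSC-derived cardiomyocytes from 16 donors were exposed for 90 min at 37 °C to each PFAS at 0.1, 1, 10 and 100 µM in 0.5% DMSO, 384-well plates. Kinetic Ca2+ flux (FLIPR) and Hoechst nuclei counts were normalised to vehicle wells and fitted with a hierarchical Bayesian Hill model to give donor-specific PODs: EC05 for beat-rate increase or decrease and for decay-to-rise ratio increase (QT proxy), EC95 for peak-frequency loss (asystole), EC10 for total cell number loss. 0.03 µM is the lower bound.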

[2] = tested on: 20032 (donor line of iPSC-derived cardiomyocytes); assay: as above
Method: as §1

[3] = tested on: 1434 (donor line of iPSC-derived cardiomyocytes); assay: as above
Method: as §1

[4] = tested on: 1535 (donor line of iPSC-derived cardiomyocytes); assay: as above
Method: as §1

[5] = tested on: 20084 (donor line of iPSC-derived cardiomyocytes); assay: as above
Method: as §1

[6] = tested on: 1565 (donor line of iPSC-derived cardiomyocytes); assay: as above
Method: as §1

[7] = tested on: 1118 (donor line of iPSC-derived cardiomyocytes); assay: as above
Method: as §1

[8] = tested on: 1368 (donor line of iPSC-derived cardiomyocytes); assay: as above
Method: as §1

[9] = tested on: 30171 (donor line of iPSC-derived cardiomyocytes); assay: as above
Method: as §1

[10] = tested on: 1531 (donor line of iPSC-derived cardiomyocytes); assay: as above
Method: as §1

[11] = tested on: 1518 (donor line of iPSC-derived cardiomyocytes); assay: as above
Method: as §1

[12] = tested on: 11235 (donor line of iPSC-derived cardiomyocytes); assay: as above
Method: as §1

[13] = tested on: 1309 (donor line of iPSC-derived cardiomyocytes); assay: as above
Method: as §1

[14] = tested on: 1516 (donor line of iPSC-derived cardiomyocytes); assay: as above
Method: as §1

[15] = tested on: 1083 (donor line of iPSC-derived cardiomyocytes); assay: as above
Method: as §1

[16] = tested on: 1392; assay: POD (EC10) for decrease in total cell number (cytotoxicity) vs vehicle; higher = less potent (higher point of departure)
Method: as §1

[17] = tested on: 30171; assay: as above
Method: as §1

[18] = tested on: 30145 (donor line of iPSC-derived cardiomyocytes); assay: as above
Method: as §1

[19] = tested on: 1309; assay: as above
Method: as §1

[20] = tested on: 1516; assay: as above
Method: as §1

NC(=O)C(F)(F)C(F)(F)C(F)(F)C(F)(F)F [Nonafluoropentanamide]
POD vs vehicle [1]: > 100 µM
POD vs vehicle [2]: > 100 µM
POD vs vehicle [3]: > 100 µM
POD vs vehicle [4]: > 100 µM
POD vs vehicle [5]: > 100 µM
POD vs vehicle [6]: > 100 µM
POD vs vehicle [7]: > 100 µM
POD vs vehicle [8]: > 100 µM
POD vs vehicle [9]: > 100 µM
POD vs vehicle [10]: > 100 µM
POD vs vehicle [11]: > 100 µM
POD vs vehicle [12]: > 100 µM
POD vs vehicle [13]: > 100 µM
POD vs vehicle [14]: > 100 µM
POD vs vehicle [15]: > 100 µM
POD vs vehicle [16]: > 100 µM
POD vs vehicle [17]: > 100 µM
POD vs vehicle [18]: > 100 µM
POD vs vehicle [19]: > 100 µM
POD vs vehicle [20]: > 100 µM

O=C(CC(=O)C(F)(F)C(F)(F)F)C(F)(F)F [3H,3H-Perfluoro-2,4-hexanedione]
POD vs vehicle [1]: > 100 µM
POD vs vehicle [2]: > 100 µM
POD vs vehicle [3]: > 100 µM
POD vs vehicle [4]: > 100 µM
POD vs vehicle [5]: > 100 µM
POD vs vehicle [6]: > 100 µM
POD vs vehicle [7]: > 100 µM
POD vs vehicle [8]: > 100 µM
POD vs vehicle [9]: > 100 µM
POD vs vehicle [10]: > 100 µM
POD vs vehicle [11]: > 100 µM
POD vs vehicle [12]: > 100 µM
POD vs vehicle [13]: > 100 µM
POD vs vehicle [14]: > 100 µM
POD vs vehicle [15]: > 100 µM
POD vs vehicle [16]: 93.5 µM
POD vs vehicle [17]: > 100 µM
POD vs vehicle [18]: > 100 µM
POD vs vehicle [19]: > 100 µM
POD vs vehicle [20]: 74.4 µM

O=C(O)C(F)(F)C(F)(F)C(F)(F)F [Perfluorobutanoic_acid]
POD vs vehicle [1]: > 100 µM
POD vs vehicle [2]: > 100 µM
POD vs vehicle [3]: > 100 µM
POD vs vehicle [4]: > 100 µM
POD vs vehicle [5]: > 100 µM
POD vs vehicle [6]: > 100 µM
POD vs vehicle [7]: > 100 µM
POD vs vehicle [8]: > 100 µM
POD vs vehicle [9]: > 100 µM
POD vs vehicle [10]: > 100 µM
POD vs vehicle [11]: > 100 µM
POD vs vehicle [12]: > 100 µM
POD vs vehicle [13]: > 100 µM
POD vs vehicle [14]: > 100 µM
POD vs vehicle [15]: > 100 µM
POD vs vehicle [16]: > 100 µM
POD vs vehicle [17]: > 100 µM
POD vs vehicle [18]: > 100 µM
POD vs vehicle [19]: > 100 µM
POD vs vehicle [20]: > 100 µM

O=S(=O)(O)CCC(F)(F)C(F)(F)C(F)(F)C(F)(F)F [4:2 Fluorotelomer sulfonic acid]
POD vs vehicle [1]: > 100 µM
POD vs vehicle [2]: > 100 µM
POD vs vehicle [3]: > 100 µM
POD vs vehicle [4]: > 100 µM
POD vs vehicle [5]: > 100 µM
POD vs vehicle [6]: > 100 µM
POD vs vehicle [7]: > 100 µM
POD vs vehicle [8]: > 100 µM
POD vs vehicle [9]: > 100 µM
POD vs vehicle [10]: > 100 µM
POD vs vehicle [11]: > 100 µM
POD vs vehicle [12]: > 100 µM
POD vs vehicle [13]: > 100 µM
POD vs vehicle [14]: > 100 µM
POD vs vehicle [15]: > 100 µM
POD vs vehicle [16]: > 100 µM
POD vs vehicle [17]: > 100 µM
POD vs vehicle [18]: > 100 µM
POD vs vehicle [19]: > 100 µM
POD vs vehicle [20]: > 100 µM

O=C([O-])C(F)(F)C(F)(F)C(F)(F)C(F)(F)C(F)(F)C(F)(F)C(F)(F)F.[NH4+] [Ammonium_perfluorooctanoate]
POD vs vehicle [1]: > 100 µM
POD vs vehicle [2]: > 100 µM
POD vs vehicle [3]: > 100 µM
POD vs vehicle [4]: > 100 µM
POD vs vehicle [5]: > 100 µM
POD vs vehicle [6]: > 100 µM
POD vs vehicle [7]: > 100 µM
POD vs vehicle [8]: > 100 µM
POD vs vehicle [9]: > 100 µM
POD vs vehicle [10]: > 100 µM
POD vs vehicle [11]: > 100 µM
POD vs vehicle [12]: > 100 µM
POD vs vehicle [13]: > 100 µM
POD vs vehicle [14]: > 100 µM
POD vs vehicle [16]: > 100 µM
POD vs vehicle [17]: > 100 µM
POD vs vehicle [18]: > 100 µM
POD vs vehicle [19]: > 100 µM
POD vs vehicle [20]: > 100 µM

OCC(F)(F)C(F)(F)C(F)(F)C(F)(F)C(F)(F)C(F)(F)F [6:1 Fluorotelomer alcohol]
POD vs vehicle [1]: > 100 µM
POD vs vehicle [2]: > 100 µM
POD vs vehicle [3]: > 100 µM
POD vs vehicle [4]: > 100 µM
POD vs vehicle [5]: > 100 µM
POD vs vehicle [6]: > 100 µM
POD vs vehicle [7]: > 100 µM
POD vs vehicle [8]: > 100 µM
POD vs vehicle [9]: > 100 µM
POD vs vehicle [10]: > 100 µM
POD vs vehicle [11]: > 100 µM
POD vs vehicle [12]: > 100 µM
POD vs vehicle [13]: > 100 µM
POD vs vehicle [14]: > 100 µM
POD vs vehicle [15]: > 100 µM
POD vs vehicle [16]: > 100 µM
POD vs vehicle [17]: > 100 µM
POD vs vehicle [18]: > 100 µM
POD vs vehicle [19]: 98.6 µM

O=S(=O)(O)C(F)(F)C(F)(F)C(F)(F)C(F)(F)F [Perfluorobutanesulfonic_acid]
POD vs vehicle [1]: > 100 µM
POD vs vehicle [2]: > 100 µM
POD vs vehicle [3]: > 100 µM
POD vs vehicle [4]: > 100 µM
POD vs vehicle [5]: > 100 µM
POD vs vehicle [6]: > 100 µM
POD vs vehicle [7]: > 100 µM
POD vs vehicle [8]: > 100 µM
POD vs vehicle [9]: > 100 µM
POD vs vehicle [10]: > 100 µM
POD vs vehicle [11]: > 100 µM
POD vs vehicle [12]: > 100 µM
POD vs vehicle [13]: > 100 µM
POD vs vehicle [14]: > 100 µM
POD vs vehicle [16]: > 100 µM
POD vs vehicle [17]: > 100 µM
POD vs vehicle [18]: > 100 µM
POD vs vehicle [19]: > 100 µM
POD vs vehicle [20]: > 100 µM

OCC(F)(F)OC(F)(F)C(F)(F)OC(F)(F)C(F)(F)OC(F)(F)F [Fluorinated_triethylene_glycol_monomethyl_ether]
POD vs vehicle [1]: > 100 µM
POD vs vehicle [2]: > 100 µM
POD vs vehicle [3]: > 100 µM
POD vs vehicle [4]: > 100 µM
POD vs vehicle [5]: > 100 µM
POD vs vehicle [6]: > 100 µM
POD vs vehicle [7]: > 100 µM
POD vs vehicle [8]: > 100 µM
POD vs vehicle [10]: > 100 µM
POD vs vehicle [12]: > 100 µM
POD vs vehicle [13]: > 100 µM
POD vs vehicle [15]: > 100 µM
POD vs vehicle [16]: 2.04 µM
POD vs vehicle [17]: > 100 µM
POD vs vehicle [18]: > 100 µM
POD vs vehicle [19]: 65.6 µM
POD vs vehicle [20]: > 100 µM

O=C(O)C(F)(F)C(F)(F)C(F)(F)C(F)(F)C(F)(F)C(F)(F)F [Perfluoroheptanoic_acid]
POD vs vehicle [1]: > 100 µM
POD vs vehicle [2]: > 100 µM
POD vs vehicle [3]: > 100 µM
POD vs vehicle [4]: > 100 µM
POD vs vehicle [5]: > 100 µM
POD vs vehicle [6]: > 100 µM
POD vs vehicle [7]: > 100 µM
POD vs vehicle [8]: > 100 µM
POD vs vehicle [9]: > 100 µM
POD vs vehicle [10]: > 100 µM
POD vs vehicle [11]: > 100 µM
POD vs vehicle [12]: > 100 µM
POD vs vehicle [13]: > 100 µM
POD vs vehicle [14]: > 100 µM
POD vs vehicle [15]: > 100 µM
POD vs vehicle [16]: > 100 µM
POD vs vehicle [17]: > 100 µM
POD vs vehicle [18]: > 100 µM
POD vs vehicle [19]: > 100 µM

O=C(O)C(F)(F)C(F)(F)C(F)F [2,2,3,3,4,4-Hexafluorobutanoic_acid]
POD vs vehicle [1]: > 100 µM
POD vs vehicle [2]: > 100 µM
POD vs vehicle [3]: > 100 µM
POD vs vehicle [4]: > 100 µM
POD vs vehicle [5]: > 100 µM
POD vs vehicle [6]: > 100 µM
POD vs vehicle [7]: > 100 µM
POD vs vehicle [8]: > 100 µM
POD vs vehicle [9]: > 100 µM
POD vs vehicle [10]: > 100 µM
POD vs vehicle [11]: > 100 µM
POD vs vehicle [12]: > 100 µM
POD vs vehicle [13]: > 100 µM
POD vs vehicle [14]: > 100 µM
POD vs vehicle [16]: > 100 µM
POD vs vehicle [17]: 0.125 µM
POD vs vehicle [18]: > 100 µM
POD vs vehicle [19]: > 100 µM
POD vs vehicle [20]: > 100 µM
